From ChEMBL document CHEMBL1649440, “Impact of sarA on antibiotic susceptibility of Staphylococcus aureus in a catheter-associated in vitro model of biofilm formation” (2009)
In brackets after ≈: the same amount, converted by molar mass.

Assays:
Staphylococcus aureus [1] = assay: Antimicrobial activity against Staphylococcus aureus isolate UAMS-1 by Etest method; format: functional
Staphylococcus aureus [2] = assay: Antimicrobial activity against Staphylococcus aureus isolate UAMS-929 harboring sarA gene mutant by Etest method; format: functional

Compound | MIC (Staphylococcus aureus [1]) [µg/mL] | MIC (Staphylococcus aureus [2]) [µg/mL]
CCCCCCCCCC(=O)N[C@@H](Cc1c[nH]c2ccccc12)C(=O)N[C@H](CC(N)=O)C(=O)N[C@@H](CC(=O)O)C(=O)N[C@@H]1C(=O)NCC(=O)N[C@@H](CCCN)C(=O)N[C@@H](CC(=O)O)C(=O)N[C@H](C)C(=O)N[C@@H](CC(=O)O)C(=O)NCC(=O)N[C@H](CO)C(=O)N[C@@H]([C@H](C)CC(=O)O)C(=O)N[C@@H](CC(=O)c2ccccc2N)C(=O)O[C@@H]1C | 0.75 (≈ 0.463 µM) | 0.75 (≈ 0.463 µM)
CN[C@H](CC(C)C)C(=O)N[C@H]1C(=O)N[C@@H](CC(N)=O)C(=O)N[C@H]2C(=O)N[C@H]3C(=O)N[C@H](C(=O)N[C@H](C(=O)O)c4cc(O)cc(O)c4-c4cc3ccc4O)[C@H](O)c3ccc(c(Cl)c3)Oc3cc2cc(c3O[C@@H]2O[C@H](CO)[C@@H](O)[C@H](O)[C@H]2O[C@H]2C[C@](C)(N)[C@H](O)[C@H](C)O2)Oc2ccc(cc2Cl)[C@H]1O [VANCOMYCIN] | 1.5 (≈ 1.04 µM) | 1.5 (≈ 1.04 µM)
CC(=O)NC[C@H]1CN(c2ccc(N3CCOCC3)c(F)c2)C(=O)O1 [LINEZOLID] | 1 (≈ 2.96 µM) | 1 (≈ 2.96 µM)
